In patent US7598028B2, “Compositions and methods for detecting and treating prostate disorders” (The Regents of the University of Michigan, priority 2006, dated 2009):

Key:
[1] = system: N15C6 prostate epithelial cells; assay: Proliferation assay (cell counts), N15C6; format: cell-based, human
Procedure: Proliferation assays. Cellular proliferation was assessed after plating cells at 50 000 cell/well in triplicate in six-well plates and counting cells after 24 and 96 h of incubation in complete media, serum-free media or serum-free prostate stromal fibroblast conditioned media, as described previously (Macoska J A, et al., (2004) Cancer Genet. Cytogenet. 154, 36-43; incorporated herein by reference in its entirety). Averages and standard deviations of cell number were calculated for each time point under each media condition. To assess the effects of exogenous CXCL12 on cellular proliferation, recombinant human SDF1 alpha/CXCL12 (R & D Systems, 350-NS) was added at the desired concentration in 1 mL SF HIE (or 1 mL SF HIE alone for control) to each well. The cells were counted at 24 and 96 h growth and re-fed at 48 and 72 h growth. Cell counts were normalized to 50 000 cells at 24 h to account for any plating discrepancies.
Proliferation Assays. Cellular proliferation was assessed after plating cells at 50,000 cell/well in triplicate in six well plates and counting cells after 24 and 96 hours of incubation as described previously (see, e.g., Macoska J A, et al., 2004 Cancer Genet. Cytogenet. 154, 36-43; incorporated herein by reference in its entirety). To assess the effects of exogenous CXCL12 on cellular proliferation, recombinant human SDF1 alpha/CXCL12 (R&D Systems, 350-NS) was added at the desired concentration in 1 ml SF HIE (or 1 ml SF HIE alone for control) to each well. The cells were re-fed at 48 and 72 hours growth and counted at 24 and 96 hours growth. Cell counts were normalized to 50,000 cells at 24 hours to account for any plating discrepancies. Averages and standard deviations of cell number were calculated for each time point under each media condition. Experiments utilizing U0126 were performed as above, except that cells were treated after plating for 2 hours with either DMSO (vehicle) or 5 uM U0126 before addition of CXCL12. Cells were maintained in media containing DMSO or U0126 for the entirety of the experiment. For the antibody blockade experiments, cells were plated at 10,000 cells per well in triplicate in 24 well dishes and pre-incubated with mouse IgG2aκ (BD Pharmingen 555571) or mouse anti-CXCR4 (BD Pharmingen 555971) at 1 ug/ml for 1 hour prior to CXCL12 addition. Cells were maintained in media containing appropriate antibodies for the entirety of the experiment, and cells were counted at 24 and 96 hours as above.
Proliferation Assays. Cellular proliferation was assessed after plating cells at 50,000 cell/well in triplicate in six well plates and counting cells after 24 and 96 hours of incubation as described previously (see, e.g., Begley L, et al., Genes Chromosomes Cancer. 2006 February; 45(2): 136-46; herein incorporated by reference in its entirety). To assess the effects of exogenous CXCL5 on cellular proliferation, recombinant human CXCL5 (R&D Systems, 254-X) was added at the desired concentration in 2 ml SF media (or 2 ml SF media alone for control) to each well. The cells were re-fed at 24 hours growth and counted at 24 and 96 hours growth. Cell counts were normalized to 50,000 cells at 24 hours to account for any plating discrepancies. Averages and standard deviations of cell number were calculated for each time point under each media condition. For the antibody blockade experiments, 10,000 cells per well were plated in triplicate in 24 well dishes and preincubated with mouse anti-human CXCR2 (Biosource AHR1532X) or mouse antihuman CXCR4 (BD Pharmingen 555971) at 1 ug/ml for 1 hour prior to CXCL5 addition. Cells were maintained in media containing appropriate antibodies for the entirety of the experiment and were counted at 24 and 96 hours as above.

ERK ½ = assay: Western blot, ERK phosphorylation in N15C6 cells; format: cell-based, human
Procedure: Western blot analysis Cells were lysed, proteins resolved by electrophoresis and electroblotting was carried out as described previously (Chaib H, et al., (2001) Cancer Res. 61, 2390-2394; incorporated herein by reference in its entirety). Proteins were detected using antibodies against phospho-ERK½ (Cell Signaling no. 9101), total ERK½ (Cell Signaling, no. 9102), CXCR4 (Abcam no. ab2074), CXCR7 (Abcam #Ab12870, Abcam #Ab12871, Abcam #38089), phospho-p65 (Rockland no. 100-401-264), total p65 (Rockland no. 100-4165), or beta-actin (Santa Cruz no. sc-1615), in conjunction with an ECL detection system.
Western Blot Analysis. Cells were lysed, proteins resolved by electrophoresis, and electroblotting was carried out as described previously (see, e.g.; Chaib H, et al., 2001 Cancer Res. 61, 2390-2394; incorporated herein by reference in its entirety). Proteins were detected using antibodies against phospho-ERK½ (Cell Signaling #9101), total ERK½ (Cell Signaling #9102), CXCR4 (Abcam #ab2074), Elk-1 (Cell Signaling #9182), Phospho Elk-1 (Cell Signaling #9181), or beta-actin (Santa Cruz #sc-1615), in conjunction with an ECL detection system.
Western Blot and Protein Analysis. Cells were lysed, proteins resolved by electrophoresis, and electroblotting was carried out as described previously except that 20 ug protein was electrophoresed per gel lane for N15C6 cells and 100 ug protein for LNCaP cells (see, e.g., Begley L, et al., Aging Cell. 2005 December; 4(6):291-8; Begley L A, et al., J Biol. Chem. 2007 Sep. 14; 282(37):26767-74; each herein incorporated by reference in their entireties). Proteins were detected using antibodies against phospho-ERK½ (Cell Signaling #9101), total ERK½ (Cell Signaling, #9102), phospho-p65, (Rockland #100-401-264), total p65 (Rockland #100-4165), STAT3 (9139), phospho-STAT3 (9138), beta-actin (Santa Cruz #sc-1615), or tubulin (Upstate, #DM1A) in conjunction with an ECL detection system. Secondary antibodies included goat anti-rabbit (Cell Signaling, #7074) and goat anti-mouse (Santa Cruz, #SC-2005), and both were used at a 1:5000 concentration. Immunoblots shown are representative of triplicate experiments. Densitometric quantitation of immunoblot films was accomplished by scanning the original films and converting the .tiff files to grayscale. Images were inverted, and mean band intensities were measured using ImageJ (www, followed by, .nih.gov). The mean intensity of adjacent background was also measured for each band and subtracted from band intensity.

Row | Compound | effect on proliferative response to CXCL12 ([1]; 1.0 uM U0126 with 1 pM, 10 pM or 100 pM CXCL12, compared to DMSO) | effect on proliferative response to CXCL12 ([1]; 5.0 uM U0126 in 0.05% DMSO) | effect of U0126 on the effect of CXCL5 (anticipated) ([1]; stated as anticipated) | cellular proliferation in the absence of CXCL12 ([1]; treatment with U0126) | effect on CXCL12-stimulated ERK ½ phosphorylation (ERK ½; 0.1 uM or 1.0 uM U0126, 1 pM CXCL12) | effect on CXCL12-stimulated ERK ½ phosphorylation (ERK ½; 1 uM U0126 pre-treatment, 10 pM or 1000 pM CXCL12) | effect on CXCL12-stimulated ERK phosphorylation (ERK ½; 1.0 uM or 5.0 uM U0126, 1 pM, 10 pM or 1000 pM CXCL12) | effect on CXCL12-stimulated ERK ½ phosphorylation (ERK ½; 5 uM U0126 pre-treatment, 10 pM or 1000 pM CXCL12) | CXCL5 concentrations that inhibited proliferation [1] [µM] | CXCL5 concentrations that stimulated proliferation [1] [pM] | proliferation versus SF media alone ([1]; 0.001-1 nM CXCL5, p<0.05) | proliferation in response to CXCL5 compared with CXCL12 ([1]; FIG. 8) | cell proliferation compared to serum-free (SF HIE) media alone ([1]; add back of exogenous chemokine, 96 hours) | ERK ½ phosphorylation (ERK ½; 10 pM, 100 pM or 1 nM CXCL5)
1 | N#CC(=C(/N)Sc1ccccc1N)/C(C#N)=C(\N)Sc1ccccc1N [U0126] | nearly ablated | nearly ablated | will inhibit | diminished | diminished | reduces | greatly diminishes | ablates | – | – | – | – | – | –
2 | CXCL5: recombinant human CXCL5 (R&D Systems, 254-X), CXC-type chemokine | – | – | – | – | – | – | – | – | > 100 | 1 to 10 | significantly higher | equivalently | stimulate | rapidly and transiently phosphorylated
